Experimental data published in PubChem BioAssay (NCI).
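All cell lines were grown in 96-well plates and treated with compound for 48 hours. TGI marks complete inhibition of growth.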

What was measured:
Assay in all cases: NCI anticancer screen, dose series, 48 h
M19-MEL melanoma = test system: M19-MEL melanoma
DMS 114 small cell lung = test system: DMS 114 small cell lung
OVCAR-4 ovarian = test system: OVCAR-4 ovarian
XF 498 CNS = test system: XF 498 CNS
RXF 393 renal = test system: RXF 393 renal
LXFL 529 NSCLC = test system: LXFL 529 NSCLC
NCI-H23 lung = test system: NCI-H23 lung
KM20L2 colon = test system: KM20L2 colon
786-0 renal = test system: 786-0 renal
KM12 colon = test system: KM12 colon
DLD-1 colon = test system: DLD-1 colon
DMS 273 small cell lung = test system: DMS 273 small cell lung
SNB-78 CNS = test system: SNB-78 CNS
HOP-18 NSCLC = test system: HOP-18 NSCLC
RXF-631 renal = test system: RXF-631 renal
DU-145 prostate = test system: DU-145 prostate

| Compound | TGI (M19-MEL melanoma) | TGI (DMS 114 small cell lung) | TGI (OVCAR-4 ovarian) | TGI (XF 498 CNS) | TGI (RXF 393 renal) | TGI (LXFL 529 NSCLC) | TGI (NCI-H23 lung) | TGI (KM20L2 colon) | TGI (786-0 renal) | TGI (KM12 colon) | TGI (DLD-1 colon) | TGI (DMS 273 small cell lung) | TGI (SNB-78 CNS) | TGI (HOP-18 NSCLC) | TGI (RXF-631 renal) | TGI (DU-145 prostate) |
| --- | --- | --- | --- | --- | --- | --- | --- | --- | --- | --- | --- | --- | --- | --- | --- | --- |
| CC(=O)OC1CC2C(C)(C)OC(=O)CC(OC(C)=O)[C@]2(C)C2CCC3(C)C(=CCC3c3ccoc3)[C@]12C (stereo partly drawn) | 52.3 µM | 96.4 µM | > 100 µM | 36 µM | > 100 µM | > 100 µM | > 100 µM | > 100 µM | > 100 µM | > 100 µM | 31.3 µM | 41.1 µM | > 100 µM |  |  |  |
| O=C(NN1C(=O)C(Cl)C1c1cccc(Cl)c1)c1ccccc1O (stereo not drawn) | > 100 µM |  | > 100 µM | 86.7 µM | > 100 µM | > 100 µM | > 100 µM |  | > 100 µM | > 100 µM |  | > 100 µM | > 100 µM | 80.7 µM |  |  |
| C/C(CC(=O)Nc1ccccc1)=N\NC(N)=S | > 100 µM | > 100 µM |  | > 100 µM | > 100 µM | > 100 µM | > 100 µM | > 100 µM | > 100 µM | > 100 µM | > 100 µM | > 100 µM | > 100 µM |  |  |  |
| C=CCN(N=O)C(=O)N(CCCCC(NC(C)=O)C(=O)NCc1ccccc1)Cc1ccccc1 (stereo not drawn) | > 100 µM | 86.4 µM | > 100 µM | > 100 µM | 93.1 µM | > 100 µM | > 100 µM | 36.7 µM | > 100 µM | > 100 µM |  | > 100 µM |  | 81.6 µM | > 100 µM |  |
| O=c1[nH]cc(COCC(O)CO)c(=O)[nH]1 (stereo not drawn) | > 100 µM | > 100 µM | > 100 µM | > 100 µM | > 100 µM | > 100 µM | > 100 µM | > 100 µM | > 100 µM | > 100 µM | > 100 µM | > 100 µM | > 100 µM | > 100 µM | > 100 µM |  |
| O=C(/C=N/O)Nc1ccc(Cl)c(I)c1 | 60.9 µM | 50 µM | > 100 µM | 64.8 µM | 46.7 µM | 42.1 µM | 42.3 µM | > 100 µM | 88.4 µM | 68.3 µM | > 100 µM | 41.9 µM |  |  |  |  |
| O=[N+]([O-])c1cc(Cl)ccc1S(=O)(=O)c1ccc(Cl)cc1[N+](=O)[O-] | 28.7 µM | 23.9 µM | 37.2 µM |  | 29.5 µM | 27.2 µM | 29.2 µM | 31.3 µM | 28.9 µM | 27.7 µM | 29.4 µM | 27.2 µM | 34.7 µM | 30.4 µM |  |  |
| O=C1COc2cc3c(cc2N1)SCCC(=O)N3 | > 100 µM | > 100 µM | > 100 µM | > 100 µM |  | > 100 µM | > 100 µM |  | > 100 µM | > 100 µM | > 100 µM | > 100 µM |  | > 100 µM | > 100 µM |  |
| OCCSCC/C(=N\N=C(/CCSCCO)c1ccccc1)c1ccccc1 | > 100 µM | > 100 µM | > 100 µM | > 100 µM | 99.7 µM | > 100 µM | > 100 µM | > 100 µM | > 100 µM | > 100 µM | > 100 µM |  | > 100 µM | > 100 µM | > 100 µM |  |
| O=C(Nc1ccccc1[N+](=O)[O-])C(=O)C(C(=O)c1ccccc1-c1ccccc1)C1OC(=O)c2ccccc21 (stereo not drawn) | 27.5 µM | 31.7 µM | > 100 µM |  | 25.9 µM | 23 µM | 33.6 µM | 34.9 µM | 28.6 µM | 30.6 µM | 44.8 µM | 38.5 µM | > 100 µM | 31.6 µM | 35.3 µM |  |
| CC(C)(C)Cc1cc(O)ccc1O |  |  | > 100 µM |  | > 100 µM |  | > 100 µM |  | > 100 µM | > 100 µM |  |  |  |  |  | > 100 µM |
| CCOC(=O)C(C)c1nc2cc(C(F)(F)F)ccc2[nH]c1=O (stereo not drawn) |  |  | > 100 µM |  | > 100 µM |  | > 100 µM |  | > 100 µM | > 100 µM |  |  |  |  |  | > 100 µM |
| CC(C)(C)OC(=O)NC(Cc1ccc(OCc2ccccc2)cn1)C(N)=O (stereo not drawn) |  |  | > 100 µM |  | > 100 µM |  | > 100 µM |  | > 100 µM | > 100 µM |  |  |  |  |  | > 100 µM |
| N#CCN1CCN(CC#N)CCN(CC#N)CCN(CC#N)CC1 |  |  | > 100 µM |  | > 100 µM |  | > 100 µM |  | > 100 µM | > 100 µM |  |  |  |  |  | > 100 µM |
| Cn1nc(S(N)(=O)=O)s/c1=N/S(=O)(=O)c1ccc(N)cc1 |  |  | > 100 µM |  | > 100 µM |  | > 100 µM |  | > 100 µM | > 100 µM |  |  |  |  |  | > 100 µM |
| CC(C(=O)O)C1Nc2ccccc2NC1=O (stereo not drawn) |  |  | > 100 µM |  | > 100 µM |  | > 100 µM |  | > 100 µM | > 100 µM |  |  |  |  |  | > 100 µM |
| COc1ccc(-c2cc(=O)c3ccc(F)cc3[nH]2)cc1 | > 100 µM | > 100 µM | > 100 µM | > 100 µM | > 100 µM | > 100 µM | > 100 µM | > 100 µM | > 100 µM | > 100 µM | > 100 µM |  | > 100 µM | > 100 µM | > 100 µM |  |
| COc1cc(OC)c2nc(C)c3c(c2c1)OCC3 |  |  | > 100 µM |  | 62.6 µM |  | > 100 µM |  | > 100 µM | > 100 µM |  |  |  |  |  | > 100 µM |
| N#CCCN(CCCN(C(=O)Nc1ccc(NC(=O)N(CCCN(CCC#N)C(N)=O)c2ccccc2)cc1)c1ccccc1)C(N)=O |  |  | > 100 µM |  | > 100 µM |  | > 100 µM |  | > 100 µM | > 100 µM |  |  |  |  |  | > 100 µM |
| C/C(=C(/C)c1cc[n+](C)cc1)c1cc[n+](C)cc1 |  | 50.3 µM | > 75 µM |  | > 75 µM | > 75 µM | > 75 µM | > 75 µM | > 75 µM | > 75 µM | > 75 µM | > 75 µM | > 75 µM | > 75 µM |  |  |
